The record followed here is ChEMBL document CHEMBL4184324, “Ligand Desolvation Steers On-Rate and Impacts Drug Residence Time of Heat Shock Protein 90 (Hsp90) Inhibitors” (J Med Chem, 2018).

This assay concerns the target Heat shock protein HSP90 (Homo sapiens, UniProt P07900+P08238). The assay is described as follows: Binding affinity to recombinant N-terminal Hsp90 (unknown origin) by SPR method. It is filed as protein assay.
For the compound `CC(=O)c1ccc(N(C)C(=O)c2cc3c(Cc4cccc(C)c4)n[nH]c3cc2O)cc1`, the Kd was 25.4 nM.
For `Cc1cccc(Cc2n[nH]c3cc(O)c(C(=O)N(C)c4cccc(Cl)c4)cc23)c1`, the equilibrium dissociation constant (Kd) is 89 nM.
In the case of `Cc1cccc(Cc2n[nH]c3cc(O)c(C(=O)N(C)c4ccc(F)cc4)cc23)c1`, the Kd is given as 73 nM.
As for `CC(=O)N1CCc2ccc(N(C)C(=O)c3cc4c(Cc5cccc(C)c5)n[nH]c4cc3O)cc21`, the figure is 51.8 nM; as for `CN(C(=O)c1cc2c(CC3CCCC3)n[nH]c2cc1O)c1ccc(N2CCOCC2)cc1`, 7.8 nM; as for `COc1ccc(N(C)C(=O)c2cc3c(Cc4cccc(C)c4)n[nH]c3cc2O)cc1Cl`, 17.2 nM.
As for `COc1ccc(N(C)C(=O)c2cc3c(Cc4cccc(C)c4)n[nH]c3cc2O)cc1`, the Kd turned out to be 24 nM.
On to `Cc1cccc(Cc2n[nH]c3cc(O)c(C(=O)N(C)c4cccc(C)c4)cc23)c1`, for which the Kd was found to be 70 nM.
With `CC(=O)N1CCc2cc(N(C)C(=O)c3cc4c(Cc5cccc(C)c5)n[nH]c4cc3O)ccc21`, the Kd came to 50.9 nM.
For the compound `CN(C(=O)c1cc2c(CC3CCCCC3)n[nH]c2cc1O)c1ccc(N2CCOCC2)cc1`, the equilibrium dissociation constant (Kd) turned out to be 42 nM.
Next, `Cc1cccc(Cc2n[nH]c3cc(O)c(C(=O)N(C)c4ccc(CN5CCOCC5)cc4)cc23)c1`: 33.4 nM; `Cc1cccc(Cc2n[nH]c3cc(O)c(C(=O)N(C)c4ccc(OCCCC#N)cc4)cc23)c1`: 32.5 nM; `Cc1ccccc1-n1c(-c2cc(C(=O)N(C)Cc3cccc(-c4cccnc4)c3)c(O)cc2O)n[nH]c1=O`: 34.6 nM.
For `CCCCc1n[nH]c2cc(O)c(C(=O)N(C)c3ccc(N4CCOCC4)cc3)cc12`, the Kd was found to be 6.6 nM.
Consider `COc1cccc(N(C)C(=O)c2cc3c(Cc4cccc(C)c4)n[nH]c3cc2O)c1`, for which the equilibrium dissociation constant (Kd) is reported as 43 nM.
On to `Cc1cccc(Cc2n[nH]c3cc(O)c(C(=O)N(C)c4ccc(CNS(C)(=O)=O)cc4)cc23)c1`, for which the dissociation constant Kd worked out at 16 nM.
Next, `CN(C(=O)c1cc2c(C(=O)N3CCCCC3)n[nH]c2cc1O)c1ccc(N2CCOCC2)cc1`: 42 nM.
In the case of `CCCc1n[nH]c2cc(O)c(C(=O)N(C)c3ccc(N4CCOCC4)cc3)cc12`, the dissociation constant Kd was 5.4 nM.
Next, `Cc1cccc(Cc2n[nH]c3cc(O)c(C(=O)N(C)c4ccc(Br)cc4)cc23)c1`: 155.3 nM.
As for `Cc1cccc(Cc2n[nH]c3cc(O)c(C(=O)N(C)c4ccc(COCCN(C)C)cc4)cc23)c1`, the dissociation constant (Kd) came out at 11.5 nM.
In the case of `Cc1cccc(Cc2n[nH]c3cc(O)c(C(=O)N(C)c4cccc(F)c4)cc23)c1`, the equilibrium dissociation constant (Kd) is listed as 61.2 nM.
As for `Cc1cccc(Cc2n[nH]c3cc(O)c(C(=O)N(C)c4ccc5c(c4)OCCO5)cc23)c1`, the figure is 38.6 nM; as for `COc1cccc(Cc2n[nH]c3cc(O)c(C(=O)N(C)c4ccc(N5CCOCC5)cc4)cc23)c1`, 12 nM; as for `Cc1cccc(Cc2n[nH]c3cc(O)c(C(=O)N(C)c4ccc(Cl)cc4)cc23)c1`, 152.9 nM.
